Data on 1 compound can be found in patent US10028971B2, “Compositions and methods for treating psychiatric disorders” (GOSFORTH CENTRE (HOLDINGS) PTY LTD., priority 2008, dated 2018).

This experiment concerns individuals with dysthymia. Put plainly: Treatment of dysthymia, clinical observation. The following applies: person, PTSD, treated ADHD, sodium valproate 100 mg a day. Type of experiment: in vivo, human. The text has this:
The inventor has noted in the clinical setting that individuals suffering with symptoms consistent with a diagnosis of dysthymia, experience a significant abatement from their negative and sometimes intrusive thought patterns on commencement of a low dose anti-epileptic drug. The inventor has also noted in the clinic that the beneficial effects that are noted on commencement of this combination can be further enhanced synergistically, by the use of a psycho-stimulant. These individuals may or may not meet the full criteria for a DSM IV diagnosis consistent with ADHD.
A number of individuals with symptoms of dysthymia report that the depression has been present since adolescence, and finally present in the clinic, after an acute major depressive episode. They are able to achieve a partial resolution from the symptoms of depression with appropriate pharmacological and psychological treatment. Unfortunately, their negative thought patterns are more persistent and can be misinterpreted as a failure to adequately respond to antidepressant therapy. In actuality these symptoms predate the acute episode, and it is not surprising therefore that they don't abate following treatment. […] These subsequent outcomes lead to an improvement in general interpersonal functioning, which in itself contributes to psychosocial stability. […]

On to `CCCC(CCC)C(=O)O.[Na]` [sodium valproate, sodium di-n-propylacetic acid], for which the “clinical outcome (case)” value is given as “could read without distraction”.
